According to paper PMC4183699, “A Relay Network of Extracellular Heme-Binding Proteins Drives C. albicans Iron Acquisition from Hemoglobin” (PLoS Pathogens, 2014):

T1: Rbt5(23–219)-Myc-6×His (C. albicans, UniProt Q59UT4 23-219)
T1 construct: Rbt5, C. albicans CFEM protein, residues 23-219: from the predicted signal peptide cleavage site to the predicted GPI anchor addition site; RBT5 nucleotides +67 to +657 cloned EcoRI-XbaI into pPICZalphaA (KB2258); Apo-protein (heme removed with 3 M imidazole); The vector pPICZalphaA may leave a few residues at the N-terminus after the alpha-factor signal is cut; also called rRbt5; recombinant …
T1 sequence: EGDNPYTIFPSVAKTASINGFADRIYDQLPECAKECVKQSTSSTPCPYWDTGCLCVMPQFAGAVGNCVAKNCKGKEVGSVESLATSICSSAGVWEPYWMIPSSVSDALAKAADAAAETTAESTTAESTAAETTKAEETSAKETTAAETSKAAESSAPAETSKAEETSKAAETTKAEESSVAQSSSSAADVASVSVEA


Legend:
Pga7 = biological target: T2, Pga7 (Candida albicans, UniProt Q59UT5); test: ITC; also Soret-shift UV-Vis titration ([…]), 1H NMR, hemin-agarose pull-down; type: binding
T2 construct: Pga7_18–195 (C-terminal Myc-6×His, expressed in Pichia pastoris)

Rbt5 = biological target: T3, Rbt5 (Candida albicans, UniProt Q59UT4); test: ITC; also hemin-agarose pull-down, size exclusion co-elution, Soret peak; type: binding
T3 construct: Rbt5_23–219 (C-terminal Myc-6×His, expressed in Pichia pastoris)

Rbt5(23–219)-Myc-6×His = biological target: T1, Rbt5(23–219)-Myc-6×His; test: SPR; Biacore T200; apo-Pga7(18–195), apo-Rbt5(23–219) and apo-Rbt5(23–219) D72A immobilised on a CM-5 chip by amine chemistry; 3 µM holo-Pga7(18–195) (with heme) injected for 60 sec; double-blanked against an empty cell and buffer; conditions: both partners purified

Row | Molecule | Kd (Pga7) [µM] | Kd (Rbt5) [µM] | binding result (Rbt5(23–219)-Myc-6×His)
1 | C=CC1=C(C)C2=Cc3c(C=C)c(C)c4[n]3[Fe]([Cl])[n]3c(c(C)c(CCC(=O)O)c3=CC3=NC(=C4)C(C)=C3CCC(=O)O)=CC1=N2 [hemin] | 0.065 | 5.4 | –
2 | Pga7(18–195)-Myc-6×His (domain or fragment, Pga7, C. albicans CFEM protein, residues 18-195: from the predicted signal peptide cleavage site to the predicted GPI anchor addition site; PGA7 nucleotides +52 to +585 cloned EcoRI-XbaI into pPICZalphaA (KB2259); Used as apo-protein (heme removed) or as holo-protein (loaded with heme, not covalent); both are this one construct; The vector pPICZalphaA may leave a few residues at the N-terminus …) NFGTYPKVPKTASINGFADPIYDLLPDCAKECVKFSTSNTPCPYWDTGCFCVMPQWAGLVGQCVAQKCKGEDVASARFLATSLCSVVGANTWMMPASISSMLSTAAGDAKEVTTIEGKTAKSWVTAPGSAAGSVVSETGSASETGSSESAQSTTTGSSSTGSSSTDSSSSSSSSPSSS | – | – | binds
